How the values were obtained:
Type in all cases: in vivo
[1] = system: Italian ryegrass (Lolium multiflorum); assay: Test B pre-/postemergence plant response
In short: (§1)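 Greenhouse pots, loam/sand soil; compound formulated with surfactant in non-phytotoxic solvent. Preemergence soil spray and postemergence spray at 1–2 leaf stage run simultaneously. Visual injury, 0–100, about 10 days post-treatment.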

[2] = system: barnyardgrass (Echinochloa crus-galli); assay: Test B pre-/postemergence plant response
In short: as §1

[3] = system: corn (Zea mays); assay: Test B pre-/postemergence plant response
In short: as §1

[4] = system: giant foxtail (Setaria faberii); assay: Test B pre-/postemergence plant response
In short: as §1

[5] = system: kochia (Kochia scoparia); assay: Test B pre-/postemergence plant response
In short: as §1

[6] = system: pigweed (Amaranthus retroflexus); assay: Test B pre-/postemergence plant response
In short: as §1

[7] = system: ragweed (common ragweed, Ambrosia elatior); assay: Test B pre-/postemergence plant response
In short: as §1

[8] = system: wheat (Triticum aestivum); assay: Test B pre-/postemergence plant response
In short: as §1

[9] = system: blackgrass (Alopecurus myosuroides); assay: Test B postemergence plant response
In short: (§2)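 Injury was assessed visually about 10 days after treatment, scored from 0 (no effect) to 100 (complete control) by comparison with untreated controls. Test chemicals had been applied postemergence to potted plants at the one- to two-leaf stage, grown in loam soil and sand in a greenhouse.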

[10] = system: galium (catchweed bedstraw, Galium aparine); assay: Test B postemergence plant response
In short: as §2

[11] = system: barnyardgrass (Echinochloa crus-galli); assay: Test C flooded paddy test plant response; conditions: Flood, 250 g ai/ha; scale of 0 to 100 where 0 is no effect and 100 is complete control; 13 to 15 days
In short: (§3)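 Greenhouse paddy assay, 13–15 days. Treatment into 3 cm floodwater over 2-leaf plants; visual 0–100 rating against controls.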

[12] = system: ducksalad (Heteranthera limosa); assay: Test C flooded paddy test plant response; conditions: Flood, 250 g ai/ha; scale of 0 to 100 where 0 is no effect and 100 is complete control; 13 to 15 days
In short: as §3

[13] = system: rice (Oryza sativa); assay: Test C flooded paddy test plant response; conditions: Flood, 250 g ai/ha; scale of 0 to 100 where 0 is no effect and 100 is complete control; 13 to 15 days
In short: as §3

[14] = system: small-flower umbrella sedge (Cyperus difformis); assay: Test C flooded paddy test plant response; conditions: Flood, 250 g ai/ha; scale of 0 to 100 where 0 is no effect and 100 is complete control; 13 to 15 days
In short: as §3

[15] = system: chickweed (common chickweed, Stellaria media); assay: Test D postemergence plant response; conditions: for Chickweed plant response rating: scale 0 to 100 (0 no effect, 100 complete control); for Plant response rating, Chickweed: scale 0 to 100, 0 no effect, 100 complete control
In short: (§4)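 Plants grown in pots of peat moss–vermiculite medium with wetting agent and starter nutrients received postemergence applications of the formulated test chemicals at 2 to 18 cm height (1- to 4-leaf stage). After 13 to 15 days in a greenhouse, injury was scored visually against untreated controls, 0 (no effect) to 100 (complete control).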

[16] = system: kochia (Kochia scoparia); assay: Test D postemergence plant response; conditions: for Kochia plant response rating: 31 g ai/ha, scale 0 to 100 (0 no effect, 100 complete control); for Plant response rating, Kochia: scale 0 to 100, 0 no effect, 100 complete control
In short: as §4

[17] = system: wild oat (Avena fatua); assay: Test D postemergence plant response
In short: as §4

[18] = 125 g ai/ha, postemergence, 0 to 100 scale, 0 no effect, 100 complete control
[19] = Postemergence, 500 g ai/ha, 0 to 100 scale (0 no effect, 100 complete control)
[20] = Preemergence, 125 g ai/ha, 0 to 100 scale (0 no effect, 100 complete control)
[21] = Preemergence, 500 g ai/ha, 0 to 100 scale where 0 is no effect and 100 is complete control
[22] = 31 g ai/ha, scale 0 to 100 (0 no effect, 100 complete control)
[23] = 62 g ai/ha, scale 0 to 100, 0 no effect, 100 complete control
[24] = 125 g ai/ha, scale 0 to 100, 0 no effect, 100 complete control
[25] = 31 g ai/ha, Preemergence, 0 to 100 scale where 0 is no effect and 100 is complete control
[26] = Postemergence, 31 g ai/ha, 0 to 100 scale (0 no effect, 100 complete control)

FC(F)(F)c1cc(-c2c(Br)cccc2Oc2ncc(Cl)cn2)no1 [Compound 170]
80: Plant response rating, Kochia [5, 21] | Plant response rating, Galium [10, 18]
70: Plant response rating, Kochia [5, 18]
60: Foxtail, Giant plant response rating [4, 20] | Plant response rating, Ragweed [7, 21] | Plant response rating, Blackgrass [9, 19] | Kochia plant response rating [16]
90: Plant response rating, Foxtail, Giant [4, 21] | Plant response rating, Chickweed ([15]; 62 g ai/ha)
0: Plant response rating, Ryegrass, Italian [1, 18] | Ryegrass, Italian plant response rating [1, 20] | Plant response rating, Barnyardgrass [2, 18] | Barnyardgrass plant response rating [2, 20] | Plant response rating, Wheat [8, 18] | Barnyardgrass plant response rating [11] | Ducksalad plant response rating [12] | Rice plant response rating [13] | Sedge, Umbrella plant response rating [14]
20: Plant response rating, Ryegrass, Italian [1, 19] | Plant response rating, Ryegrass, Italian [1, 21] | Plant response rating, Barnyardgrass [2, 19] | Plant response rating, Barnyardgrass [2, 21] | Plant response rating, Corn [3, 18] | Plant response rating, Corn [3, 19] | Ragweed plant response rating [7, 20]
10: Plant response rating, Ragweed [7, 18] | Plant response rating, Oat, Wild [17, 24]
50: Plant response rating, Foxtail, Giant [4, 19] | Plant response rating, Ragweed [7, 19] | Plant response rating, Blackgrass [9, 18]
65: Chickweed plant response rating ([15]; 31 g ai/ha)
30: Plant response rating, Foxtail, Giant [4, 18] | Kochia plant response rating [5, 20] | Plant response rating, Wheat [8, 19] | Chickweed plant response rating ([15]; 16 g ai/ha)
85: Plant response rating, Kochia ([16]; 62 g ai/ha)
100: Plant response rating, Kochia [5, 19] | Plant response rating, Pigweed [6, 18] | Plant response rating, Pigweed [6, 19] | Pigweed plant response rating [6, 20] | Plant response rating, Pigweed [6, 21] | Plant response rating, Galium [10, 19] | Plant response rating, Chickweed ([15]; 125 g ai/ha) | Plant response rating, Kochia ([16]; 125 g ai/ha)
5: Oat, Wild plant response rating [17, 22] | Plant response rating, Oat, Wild [17, 23]

CC(F)(F)c1cc(-c2ccccc2Oc2ncc(Cl)cn2)on1 [Compound 178]
60: Plant response rating, Foxtail, Giant [4, 25] | Plant response rating, Foxtail, Giant [4, 18] | Plant response rating, Chickweed ([15]; 62 g ai/ha)
30: Plant response rating, Ryegrass, Italian [1, 18]
40: Plant response rating, Barnyardgrass [2, 18] | Plant response rating, Blackgrass [9, 18] | Barnyardgrass plant response rating [11]
0: Plant response rating, Ryegrass, Italian [1, 25] | Plant response rating, Ryegrass, Italian [1, 26] | Plant response rating, Barnyardgrass [2, 26] | Plant response rating, Corn [3, 26] | Plant response rating, Ragweed [7, 25] | Ragweed plant response rating [7, 20] | Plant response rating, Wheat [8, 26] | Rice plant response rating [13] | Plant response rating (scale 0 to 100), Oat, Wild ([17]; 16 g ai/ha) | Oat, Wild plant response rating [17, 22]
100: Plant response rating, Kochia [5, 18] | Plant response rating, Pigweed [6, 18] | Plant response rating, Pigweed [6, 26] | Pigweed plant response rating [6, 20] | Plant response rating, Galium [10, 18] | Plant response rating, Kochia ([16]; 62 g ai/ha) | Plant response rating, Kochia ([16]; 125 g ai/ha)
85: Sedge, Umbrella plant response rating [14]
95: Kochia plant response rating [16]
5: Oat, Wild plant response rating [17, 23] | Plant response rating, Oat, Wild [17, 24]
10: Ryegrass, Italian plant response rating [1, 20] | Plant response rating, Foxtail, Giant [4, 26] | Plant response rating, Kochia [5, 25] | Plant response rating, Ragweed [7, 18] | Plant response rating, Ragweed [7, 26] | Plant response rating, Wheat [8, 18] | Plant response rating, Blackgrass [9, 26]
90: Foxtail, Giant plant response rating [4, 20] | Plant response rating, Pigweed [6, 25] | Ducksalad plant response rating [12] | Plant response rating (scale 0 to 100), Kochia ([16]; 16 g ai/ha)
20: Plant response rating, Barnyardgrass [2, 25] | Plant response rating, Corn [3, 18] | Kochia plant response rating [5, 20]
80: Plant response rating, Kochia [5, 26] | Plant response rating, Galium [10, 26] | Plant response rating, Chickweed ([15]; 125 g ai/ha)
50: Plant response rating (scale 0 to 100), Chickweed ([15]; 16 g ai/ha) | Chickweed plant response rating ([15]; 31 g ai/ha)
70: Barnyardgrass plant response rating [2, 20]
